TGI data for 18 compounds are collected here from PubChem BioAssay (NCI).

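Briefly, cells in 96-well plates were exposed to five compound concentrations for 48 h, and endpoints were estimated by linear interpolation. At the TGI there is no net growth.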 Where a SMILES comes first, the peptide text is derived from it. The star is where a group is joined. Boc = CC(C)(C)OC(=O)* Where only a bound is given, the exact number is not on record here.

One assay has as its system SK-OV-3 ovarian. The assay can be described thus: NCI-60 cell line screen, 48 h.
Compound `CCC(CCCN)Nc1cc(OC)cc2c(C)ccnc12` (stereo not given) gave a TGI of 26.4 µM.

The subject of another assay is UO-31 renal. The assay can be described thus: NCI-60 cell line screen, 48 h.
`COc1ccc2c(c1)C(=O)C1CC(=O)CCC21` (stereo not given) came in with a TGI of more than 100 µM.
On the same count and under the same terms, for `Cc1ccccc1-n1c(=O)c2ncn(C3CCCO3)c2n(-c2ccccc2C)c1=S` (stereo not given) the value was more than 100 µM; for `NC(N)=NCC[C@H](NC(=O)OCCCCCn1ccc(=O)[nH]c1=O)C(=O)O`, more than 100 µM; for `CSc1nc2c(c(=O)[nH]1)N=C(c1ccc([N+](=O)[O-])cc1)CC(c1ccccc1)N2` (stereo not given), more than 100 µM.
The compound `CN(C)c1ccc(NN=C2SC(=Nc3ccccc3)C(=Nc3ccccc3)S2)cc1` displayed a TGI of more than 100 µM.
Take `CCOC(=O)C1=NOC2(C=C(Br)C(=O)C(Br)=C2)C1`: the TGI came to 2.51 µM.
`O=c1[nH]cc(-c2c[nH]c3ccccc23)nc1-c1c[nH]c2ccccc12`: the TGI turned out to be 29.8 µM.
Compound `CC(C)(C)OC(=O)NC(Cc1ccc(O)cc1)C(=O)N1CCCC1C(=O)O` (stereo not drawn) (Boc-Tyr-Pro-OH; configuration not given here) had a TGI of more than 100 µM.
Compound `Nc1n[n+](CC(=O)c2ccccc2)c2sc(-c3ccccc3)nn12` registered a TGI of more than 100 µM.
Regarding `O=C(O)c1ccc(C2COc3ccc(Cl)cc3C2)cc1` (stereo not given), the TGI is more than 100 µM.
In the case of `CC(=O)NC(CCCNC(=O)N(CCCl)N=O)C(=O)NCc1ccccc1` (stereo not given), the TGI was more than 100 µM.
Turning to `COC(=O)[C@H](CCSC)NC(=O)N[C@H](C)c1ccccc1`, the TGI is more than 100 µM.
For the compound `CCN1C(=O)c2cc(OC)c(OC)cc2C(=O)C12OC(=O)c1cc3c(cc12)OCO3` (stereo not given), the TGI was more than 100 µM.
On to `C=CC[C@@H](N)C(=O)N(C)[C@@H](C)[C@@H](O)c1ccccc1`, for which the TGI was more than 100 µM.
Same read-out and setting: for `CC(=O)CN(Cc1cc(C)c2c(c1)c1ccccc1n2Cc1ccccc1)S(=O)(=O)c1ccc(C)cc1` the value was more than 100 µM.
The compound `O=C1NC(=O)C2C(=O)NC(=O)C1C2c1c(Cl)cccc1Cl` (stereo not given) displayed a TGI of more than 100 µM.
On the same count and under the same terms, then `CCC(CCCN)Nc1cc(OC)cc2c(C)ccnc12` (stereo not given), with 25.6 µM.

A further assay deals with OVCAR-4 ovarian. The assay can be described thus: NCI-60 cell line screen, 48 h.
As to `COc1ccc2c(c1)C(=O)C1CC(=O)CCC21` (stereo not given), the TGI was more than 100 µM.
For `NC(N)=NCC[C@H](NC(=O)OCCCCCn1ccc(=O)[nH]c1=O)C(=O)O`, the TGI was more than 100 µM.
On to `CSc1nc2c(c(=O)[nH]1)N=C(c1ccc([N+](=O)[O-])cc1)CC(c1ccccc1)N2` (stereo not given), for which the TGI was more than 100 µM.
`CN(C)c1ccc(NN=C2SC(=Nc3ccccc3)C(=Nc3ccccc3)S2)cc1`: the TGI was more than 100 µM.
For the compound `O=c1[nH]cc(-c2c[nH]c3ccccc23)nc1-c1c[nH]c2ccccc12`, the TGI worked out at 43.3 µM.
For the compound `CC(C)(C)OC(=O)NC(Cc1ccc(O)cc1)C(=O)N1CCCC1C(=O)O` (stereo not drawn) (Boc-Tyr-Pro-OH; configuration not given here), the TGI was more than 100 µM.
Still for that read-out and setting: then `Nc1n[n+](CC(=O)c2ccccc2)c2sc(-c3ccccc3)nn12`, with more than 100 µM; and `CC(=O)NC(CCCNC(=O)N(CCCl)N=O)C(=O)NCc1ccccc1` (stereo not given), with more than 100 µM; and `COC(=O)[C@H](CCSC)NC(=O)N[C@H](C)c1ccccc1`, with more than 100 µM.
With `CCN1C(=O)c2cc(OC)c(OC)cc2C(=O)C12OC(=O)c1cc3c(cc12)OCO3` (stereo not given), the TGI is more than 100 µM.
On the same count and under the same terms, for `C=CC[C@@H](N)C(=O)N(C)[C@@H](C)[C@@H](O)c1ccccc1` the value was more than 100 µM; for `CC(=O)CN(Cc1cc(C)c2c(c1)c1ccccc1n2Cc1ccccc1)S(=O)(=O)c1ccc(C)cc1`, more than 100 µM; for `O=C1NC(=O)C2C(=O)NC(=O)C1C2c1c(Cl)cccc1Cl` (stereo not given), more than 100 µM.
`CCC(CCCN)Nc1cc(OC)cc2c(C)ccnc12` (stereo not given) gave a TGI of 39 µM.

Another assay has as its system KM12 colon. Briefly: NCI-60 cell line screen, 48 h.
`COc1ccc2c(c1)C(=O)C1CC(=O)CCC21` (stereo not given) gave a TGI of more than 100 µM.
Compound `Cc1ccccc1-n1c(=O)c2ncn(C3CCCO3)c2n(-c2ccccc2C)c1=S` (stereo not given) yielded a TGI of more than 100 µM.
On the same count and under the same terms, for `NC(N)=NCC[C@H](NC(=O)OCCCCCn1ccc(=O)[nH]c1=O)C(=O)O` the value was more than 100 µM; for `CSc1nc2c(c(=O)[nH]1)N=C(c1ccc([N+](=O)[O-])cc1)CC(c1ccccc1)N2` (stereo not given), 33.2 µM; for `CN(C)c1ccc(NN=C2SC(=Nc3ccccc3)C(=Nc3ccccc3)S2)cc1`, more than 100 µM.
`CCOC(=O)C1=NOC2(C=C(Br)C(=O)C(Br)=C2)C1` had a TGI of 29.7 µM.
The compound `O=c1[nH]cc(-c2c[nH]c3ccccc23)nc1-c1c[nH]c2ccccc12` had a TGI of more than 100 µM.
Turning to `CC(C)(C)OC(=O)NC(Cc1ccc(O)cc1)C(=O)N1CCCC1C(=O)O` (stereo not drawn) (Boc-Tyr-Pro-OH; configuration not given here), the TGI was more than 100 µM.
`Nc1n[n+](CC(=O)c2ccccc2)c2sc(-c3ccccc3)nn12` had a TGI of more than 100 µM.
For the compound `O=C(O)c1ccc(C2COc3ccc(Cl)cc3C2)cc1` (stereo not given), the TGI was more than 100 µM.
`CC(=O)NC(CCCNC(=O)N(CCCl)N=O)C(=O)NCc1ccccc1` (stereo not given) showed a TGI of more than 100 µM.
In turn, `COC(=O)[C@H](CCSC)NC(=O)N[C@H](C)c1ccccc1` came in with a TGI of more than 100 µM.
Consider `CCN1C(=O)c2cc(OC)c(OC)cc2C(=O)C12OC(=O)c1cc3c(cc12)OCO3` (stereo not given), for which the TGI was more than 100 µM.
In turn, `C=CC[C@@H](N)C(=O)N(C)[C@@H](C)[C@@H](O)c1ccccc1` had a TGI of more than 100 µM.
Compound `CC(=O)CN(Cc1cc(C)c2c(c1)c1ccccc1n2Cc1ccccc1)S(=O)(=O)c1ccc(C)cc1` registered a TGI of more than 100 µM.
On to `O=C1NC(=O)C2C(=O)NC(=O)C1C2c1c(Cl)cccc1Cl` (stereo not given), for which the TGI was more than 100 µM.
Take `CCC(CCCN)Nc1cc(OC)cc2c(C)ccnc12` (stereo not given): the TGI worked out at 29 µM.

Another assay relates to T-47D breast. The assay can be described thus: NCI-60 cell line screen, 48 h.
In the case of `Cc1n[nH]c(=O)n1N1C(=O)CCCC1=O`, the TGI is more than 100 µM.
On to `Cc1ccccc1-n1c(=O)c2ncn(C3CCCO3)c2n(-c2ccccc2C)c1=S` (stereo not given), for which the TGI was more than 100 µM.
As to `NC(N)=NCC[C@H](NC(=O)OCCCCCn1ccc(=O)[nH]c1=O)C(=O)O`, the TGI is more than 100 µM.
In turn, `CN(C)c1ccc(NN=C2SC(=Nc3ccccc3)C(=Nc3ccccc3)S2)cc1` came in with a TGI of more than 100 µM.
Turning to `CCOC(=O)C1=NOC2(C=C(Br)C(=O)C(Br)=C2)C1`, the TGI stood at 3.99 µM.
For `O=c1[nH]cc(-c2c[nH]c3ccccc23)nc1-c1c[nH]c2ccccc12`, the TGI worked out at 41.9 µM.
As to `Nc1n[n+](CC(=O)c2ccccc2)c2sc(-c3ccccc3)nn12`, the TGI was more than 100 µM.
Turning to `C=CC[C@@H](N)C(=O)N(C)[C@@H](C)[C@@H](O)c1ccccc1`, the TGI was more than 100 µM.

The next assay relates to HCT-15 colon. Briefly: NCI-60 cell line screen, 48 h.
Regarding `COc1ccc2c(c1)C(=O)C1CC(=O)CCC21` (stereo not given), the TGI is more than 100 µM.
The same measure, in the same setting: for `Cc1ccccc1-n1c(=O)c2ncn(C3CCCO3)c2n(-c2ccccc2C)c1=S` (stereo not given) the value was more than 100 µM; for `NC(N)=NCC[C@H](NC(=O)OCCCCCn1ccc(=O)[nH]c1=O)C(=O)O`, more than 100 µM; for `CN(C)c1ccc(NN=C2SC(=Nc3ccccc3)C(=Nc3ccccc3)S2)cc1`, more than 100 µM.
Consider `CCOC(=O)C1=NOC2(C=C(Br)C(=O)C(Br)=C2)C1`, for which the TGI was 4.91 µM.
Regarding `O=c1[nH]cc(-c2c[nH]c3ccccc23)nc1-c1c[nH]c2ccccc12`, the TGI came out at 23.7 µM.
For `CC(C)(C)OC(=O)NC(Cc1ccc(O)cc1)C(=O)N1CCCC1C(=O)O` (stereo not drawn) (Boc-Tyr-Pro-OH; configuration not given here), the TGI is more than 100 µM.
Compound `Nc1n[n+](CC(=O)c2ccccc2)c2sc(-c3ccccc3)nn12` returned a TGI of more than 100 µM.
Compound `O=C(O)c1ccc(C2COc3ccc(Cl)cc3C2)cc1` (stereo not given) registered a TGI of more than 100 µM.
`CC(=O)NC(CCCNC(=O)N(CCCl)N=O)C(=O)NCc1ccccc1` (stereo not given) gave a TGI of more than 100 µM.
Take `COC(=O)[C@H](CCSC)NC(=O)N[C@H](C)c1ccccc1`: the TGI was more than 100 µM.
In the case of `CCN1C(=O)c2cc(OC)c(OC)cc2C(=O)C12OC(=O)c1cc3c(cc12)OCO3` (stereo not given), the TGI is more than 100 µM.
`C=CC[C@@H](N)C(=O)N(C)[C@@H](C)[C@@H](O)c1ccccc1` yielded a TGI of more than 100 µM.
